From US20240122890A1, “USE OF EXOGENOUS KETONE ESTERS TO INDUCE WEIGHT LOSS IN MAMMALS” (Buck Institute for Research on Aging, priority 2021, published 2024)

Tests used:
[1] = Waking body weight with daily ketone ester consumption in a person with obesity; format: in vivo, human; conditions: for Weight (waking body weight): daily 25 g KE
Experimental: This example describes the effect of daily ketone ester consumption in a person with obesity (BMI=42.5 kg/m^2). The subject began consuming one 25 g serving of KE each morning on Nov. 15, 2021, and maintained daily consumption each morning for 7 weeks. The KE was in a commercially available consumer-friendly beverage formulation (Juvenescence, NJ, USA). Body weight was recorded by the subject after waking each morning (see, e.g., Table 1 and FIG. 3). […] The highest body weight in this period was on Nov. 15, 2021 (288 lbs), and the lowest was on Day Dec. 21, 2021 (254 lbs), giving a total weight loss of 34 lbs (11.8% of starting body mass)

[2] = Body weight of mice swapped to a diet containing 20% KE; format: in vivo, C57/BL6 mice; conditions: diet containing 20% KE (by weight); n=5 female
Text: Male (n=10) and female (n=10) C57/BL6 mice were fed control diet for one week. The next week n=5 male and n=5 female mice were swapped to a diet containing 20% KE (by weight) mixed into a custom-made diet.

[3] = 25 g KE each morning, highest to lowest body weight

CCCCCC(=O)OCC[C@@H](C)OC(=O)CCCCC [KE, bis hexanoyl (R)-1,3-butanediol]
lowest body weight in this period ([1]; 25 g KE each morning, Dec. 21, 2021): 254 lbs | highest body weight in this period ([1]; 25 g KE each morning, Nov. 15, 2021): 288 lbs | total weight loss [1, 3]: 34 lbs | total weight loss, % of starting body mass [1, 3]: 11.8% | Weight (waking body weight) ([1]; 1 Dec. 2021): 272.5 lbs | Weight (waking body weight) ([1]; 1 Jan. 2022): 258 lbs | Weight (waking body weight) ([1]; 2 Dec. 2021): 272.5 lbs | Weight (waking body weight) ([1]; 2 Jan. 2022): 257 lbs | Weight (waking body weight) ([1]; 3 Dec. 2021): 272 lbs | Weight (waking body weight) ([1]; 3 Jan. 2022): 255.5 lbs | Weight (waking body weight) ([1]; 4 Dec. 2021): 271 lbs | Weight (waking body weight) ([1]; 4 Jan. 2022): 255.5 lbs | Weight (waking body weight) ([1]; 5 Dec. 2021): 270 lbs | Weight (waking body weight) ([1]; 5 Jan. 2022): 256 lbs | Weight (waking body weight) ([1]; 6 Dec. 2021): 268.5 lbs | Weight (waking body weight) ([1]; 7 Dec. 2021): 267.5 lbs | Weight (waking body weight) ([1]; 8 Dec. 2021): 267 lbs | Weight (waking body weight) ([1]; 9 Dec. 2021): 266 lbs | Weight (waking body weight) ([1]; 10 Dec. 2021): 265.5 lbs | Weight (waking body weight) ([1]; 11 Dec. 2021): 264.5 lbs | Weight (waking body weight) ([1]; 12 Dec. 2021): 264 lbs | Weight (waking body weight) ([1]; 13 Dec. 2021): 262.5 lbs | Weight (waking body weight) ([1]; 14 Dec. 2021): 261.5 lbs | Weight (waking body weight) ([1]; 15 Dec. 2021): 260.5 lbs | Weight (waking body weight) ([1]; 15 Nov. 2021): 288 lbs | Weight (waking body weight) ([1]; 16 Dec. 2021): 258 lbs | Weight (waking body weight) ([1]; 16 Nov. 2021): 286.5 lbs | Weight (waking body weight) ([1]; 17 Dec. 2021): 256 lbs | Weight (waking body weight) ([1]; 17 Nov. 2021): 284 lbs | Weight (waking body weight) ([1]; 18 Dec. 2021): 256 lbs | Weight (waking body weight) ([1]; 18 Nov. 2021): 283 lbs | Weight (waking body weight) ([1]; 19 Dec. 2021): 255 lbs | Weight (waking body weight) ([1]; 19 Nov. 2021): 283 lbs | Weight (waking body weight) ([1]; 20 Dec. 2021): 255 lbs | Weight (waking body weight) ([1]; 20 Nov. 2021): 282.5 lbs | Weight (waking body weight) ([1]; 21 Dec. 2021): 254 lbs | Weight (waking body weight) ([1]; 21 Nov. 2021): 281.5 lbs | Weight (waking body weight) ([1]; 22 Dec. 2021): 256 lbs | Weight (waking body weight) ([1]; 22 Nov. 2021): 279.5 lbs | Weight (waking body weight) ([1]; 23 Dec. 2021): 258 lbs | Weight (waking body weight) ([1]; 23 Nov. 2021): 279 lbs | Weight (waking body weight) ([1]; 24 Dec. 2021): 257 lbs | Weight (waking body weight) ([1]; 24 Nov. 2021): 278 lbs | Weight (waking body weight) ([1]; 25 Dec. 2021): 258 lbs | Weight (waking body weight) ([1]; 25 Nov. 2021 (first line of this date)): 278 lbs | Weight (waking body weight) ([1]; 25 Nov. 2021 (second line of this date)): 276.5 lbs | Weight (waking body weight) ([1]; 26 Dec. 2021): 260 lbs | Weight (waking body weight) ([1]; 26 Nov. 2021): 275 lbs | Weight (waking body weight) ([1]; 27 Dec. 2021): 258 lbs | Weight (waking body weight) ([1]; 27 Nov. 2021): 275 lbs | Weight (waking body weight) ([1]; 28 Dec. 2021): 257 lbs | Weight (waking body weight) ([1]; 28 Nov. 2021): 273.5 lbs | Weight (waking body weight) ([1]; 29 Dec. 2021): 258 lbs | Weight (waking body weight) ([1]; 29 Nov. 2021): 273 lbs | Weight (waking body weight) ([1]; 30 Dec. 2021): 260.5 lbs | Weight (waking body weight) ([1]; 30 Nov. 2021): 273 lbs | Weight (waking body weight) ([1]; 31 Dec. 2021): 260 lbs | deaths [2]: Two female animals died due to rapid weight loss
